The source of these data is PMC5461267, “Membrane Guanylate Cyclase catalytic Subdomain: Structure and Linkage with Calcium Sensors and Bicarbonate” (Frontiers in Molecular Neuroscience, 2017).

Where a chain is given by its changes, count along the chain named.

For assay [1], the target named is T1, ROS-GC1 (rod outer segment guanylate cyclase type 1), full-length recombinant (Bos taurus, UniProt P55203, A1013R/N1009A).
T1 construct: gene GUCY2D
T1 sequence (P55203 57-1110 N1009A/A1013R): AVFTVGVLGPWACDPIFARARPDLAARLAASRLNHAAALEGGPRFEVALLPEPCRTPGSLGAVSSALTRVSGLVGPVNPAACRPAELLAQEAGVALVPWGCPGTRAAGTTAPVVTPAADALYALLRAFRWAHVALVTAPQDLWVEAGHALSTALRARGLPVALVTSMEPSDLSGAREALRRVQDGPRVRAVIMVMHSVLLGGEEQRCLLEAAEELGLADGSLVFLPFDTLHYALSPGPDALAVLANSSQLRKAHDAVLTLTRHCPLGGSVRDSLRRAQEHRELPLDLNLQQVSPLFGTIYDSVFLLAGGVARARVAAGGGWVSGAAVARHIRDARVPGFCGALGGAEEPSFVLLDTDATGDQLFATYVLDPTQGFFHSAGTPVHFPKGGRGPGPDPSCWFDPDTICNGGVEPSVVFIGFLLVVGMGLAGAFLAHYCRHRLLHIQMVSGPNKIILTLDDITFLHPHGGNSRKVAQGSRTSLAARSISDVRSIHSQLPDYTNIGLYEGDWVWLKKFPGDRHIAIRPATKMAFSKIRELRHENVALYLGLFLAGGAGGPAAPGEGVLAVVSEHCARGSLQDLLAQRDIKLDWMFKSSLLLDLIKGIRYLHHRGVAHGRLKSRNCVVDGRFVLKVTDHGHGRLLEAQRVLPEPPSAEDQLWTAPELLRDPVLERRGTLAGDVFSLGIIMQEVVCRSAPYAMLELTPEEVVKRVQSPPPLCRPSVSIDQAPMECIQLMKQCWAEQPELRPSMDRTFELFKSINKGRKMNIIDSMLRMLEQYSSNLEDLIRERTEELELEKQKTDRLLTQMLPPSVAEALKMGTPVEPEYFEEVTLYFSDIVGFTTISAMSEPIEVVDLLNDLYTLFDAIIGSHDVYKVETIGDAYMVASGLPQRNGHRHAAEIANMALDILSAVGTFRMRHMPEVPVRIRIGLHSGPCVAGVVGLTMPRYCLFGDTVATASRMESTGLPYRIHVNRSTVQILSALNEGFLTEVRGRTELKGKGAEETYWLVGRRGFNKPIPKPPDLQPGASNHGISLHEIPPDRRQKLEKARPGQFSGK
Kind of assay: biochemical.

Assay [2] concerns the target T2, ROS-GC1 (rod outer segment guanylate cyclase type 1), full-length recombinant (Bos taurus, UniProt P55203, A1013R/D890A).
T2 construct: gene GUCY2D
T2 sequence (P55203 57-1110 D890A/A1013R): T1 sequence (P55203 57-1110 N1009A/A1013R) with D834A, A953N
Kind of assay: biochemical.

Turning to `O=C(O)O` [bicarbonate], the EC50 (commonly the concentration at which the effect is half-maximal) in assay [1] was approximately 25 mM; in assay [2], approximately 30 mM.
